Source: patent US20150196514A1, “METHOD OF TREATING CARDIOVASCULAR EVENTS USING COLCHICINE CONCURRENTLY WITH AN ANTITHROMBOTIC DRUG” (Murray and Poole Enterprises Limited, priority 2012, published 2015)

Tests used:
[1] = test system: patients with a first episode of recurrent pericarditis; conditions: at 18 months, colchicine 1.0-2.0 mg first day then 0.5-1.0 mg/d for 6 months added to conventional treatment; cited from earlier work
[2] = test system: patients with acute pericarditis; conditions: at 18 months, colchicine 1.0 to 2.0 mg first day then 0.5 to 1.0 mg/day for 3 months added to conventional treatment, p=0.004; cited from earlier work
[3] = test system: patients with clinically stable coronary disease; assay: LoDoCo Trial: colchicine 0.5 mg/day added to standard secondary prevention therapies
Experimental: To assess the therapeutic effects of an immediate release formulation in patients with cardiovascular disease, a prospective randomized observer blinded end-point trial was conducted to determine whether adding 0.5 mg/day of colchicine to standard secondary prevention therapies including aspirin and high dose statins reduces the risk of cardiovascular events in patients with objectively diagnosed and clinically stable coronary disease.
Eligible consenting patients with established coronary disease presenting for routine clinical review were randomized to receive colchicine 0.5 mg/day or no colchicine without any other change to their medical therapy. All outcomes were evaluated by an experienced adjudicator blinded to the treatment allocation.
It was planned to recruit a study population that would include 500 patients planned (532 patients randomized as 32 dropped out early), 250 randomized to the control group and 250 patients randomized to treatment who were tolerant of colchicine for at least 4 weeks after the date of their randomization. Patients were eligible for inclusion if they met each of the following criteria: 1) angiographically proven coronary disease; 2) aged 35 to 85 years; 3) clinically stable for at least 6 months, 4) no major competing co-morbidities or contra-indication to colchicine therapy, 5) considered to be compliant with therapy and attending routine cardiology follow up appointments, and 6) willing to be consented and randomized into the study. Patients with a history of bypass surgery were only eligible if they had undergone bypass surgery more than 10 years before, or had angiographic evidence of graft failure or had undergone stenting since their bypass surgery. All patients signed informed consent before randomization.
The randomization sequence was computer generated, kept concealed from the investigators at all times and was managed by a research assistant who had no involvement in the evaluation or management of study patients. […] Despite electing to use the lowest dose of colchicine available, it was anticipated that a number of patients would withdraw from therapy early after randomization due to gastrointestinal side effects. In order to ensure that the requisite number of patients in the treatment arm were actually tolerant of treatment, the protocol allowed for the research assistant to assign a newly recruited patient to treatment if a patient discontinued colchicine due to side effects in the first month. Patients who were intolerant to therapy remained in the study, and were followed in the usual manner and included in the primary intention to treat analysis.
The drug was dispensed by their usual chemist, and if requested, patients were reimbursed for the cost of these scripts. All other treatments were continued as usual.
Patient compliance with treatment and outcome data were collected at routine follow up visits and at the time of any unplanned hospital admission. An acute coronary syndrome (ACS) was defined as either (a) Acute Myocardial Infarction (AMI), as evidenced by acute ischemic chest pain associated with a rise in serum troponin above the upper limit of normal or (b) Unstable Angina (UA), as evidenced by a recent acceleration of the patient's angina unassociated with a rise in serum troponin but associated with angiographic evidence of a change in the patient's coronary anatomy. […] The ACS was characterized as being stent-related if there was evidence of significant in-stent stenosis or acute stent thrombosis. Out of Hospital Cardiac Arrest was defined as either a sudden death as evidenced on the patient's death certificate, or a non-fatal out of hospital cardiac arrest, defined as a recovery from sudden collapse associated with documented asystole, ventricular tachycardia or ventricular fibrillation.

[4] = No treatment (no antithrombotic drug), colchicine group 1
[5] = Treated with Aspirin + clopidogrel + warfarin, colchicine group 2
[6] = Treated with Aspirin + clopidogrel, colchicine group 33
[7] = Treated with Aspirin + warfarin, colchicine group 6
[8] = Treated with Aspirin alone, colchicine group 173
[9] = Treated with Clopidogrel alone or warfarin alone (no aspirin), colchicine group 28
[10] = Treated with Clopidogrel alone, colchicine group 12
[11] = Treated with Warfarin alone, colchicine group 16
[12] = Treated with a least one antiplatelet drug (at least aspirin, clopidogrel or combinations thereof), colchicine group 226
[13] = Treated with at least aspirin, colchicine group 214
[14] = Treated with at least one antithrombotic drugs (at least aspirin, clopidogrel or warfarin or combinations thereof), colchicine group 242
[15] = intention to treat, 282 patients

CC(=O)Oc1ccccc1C(=O)O [aspirin]
recurrence rate (actuarial rates) [1]: 50.6%
recurrence rate [2]: 32.3%

COc1cc2c(c(OC)c1OC)-c1ccc(OC)c(=O)cc1[C@@H](NC(C)=O)CC2 [colchicine, N[5,6,7,9-tetrahydro-1,2,3,10-tetratmethoxy 9-oxobenzo[a]heptalen-7-yl],(S)-acetamide]
recurrence rate (actuarial rates) [1]: 24.0%
early intolerance due to gastrointestinal side effects, incidence ([3]; 282 randomized to treatment): 11%
Primary Outcome, number of patients [3, 4]: 0 (0%)
Primary Outcome, percent [3, 4]: 0 (0%)
Primary Outcome, number of patients ([3]; Total*, colchicine group 243): 11
Primary Outcome, percent ([3]; Total*, colchicine group 243): 4.5%
Primary Outcome, number of patients [3, 5]: 0 (0%)
Primary Outcome, percent [3, 5]: 0 (0%)
Primary Outcome, number of patients [3, 6]: 3
Primary Outcome, percent [3, 6]: 9%
Primary Outcome, number of patients [3, 7]: 0 (0%)
Primary Outcome, percent [3, 7]: 0 (0%)
Primary Outcome, number of patients [3, 8]: 7
Primary Outcome, percent [3, 8]: 4%
Primary Outcome, number of patients [3, 9]: 1
Primary Outcome, percent [3, 9]: 3.45%
Primary Outcome, number of patients [3, 10]: 1
Primary Outcome, percent [3, 10]: 8.3%
Primary Outcome, number of patients [3, 11]: 0 (0%)
Primary Outcome, percent [3, 11]: 0 (0%)
Primary Outcome, number of patients [3, 12]: 11
Primary Outcome, percent [3, 12]: 4.9%
Primary Outcome, number of patients [3, 13]: 10
Primary Outcome, percent [3, 13]: 4.67%
Primary Outcome, number of patients [3, 14]: 11
Primary Outcome, percent [3, 14]: 4.5%
risk of a cardiovascular event, including an ACS, out of hospital cardiac arrest and non-cardio-embolic ischemic stroke ([3]; colchicine 0.5 mg/day added to standard therapy in patients with stable coronary disease): significantly reduces the risk
patients who died of non-cardiac causes ([3]; colchicine group): 4 patients
patients who died ([3]; colchicine group, study period): 4 patients
ACS unrelated to stent disease associated with UA, incidence [3, 15]: 1.8%
ACS unrelated to stent disease associated with an AMI, incidence [3, 15]: 1.4%
ACS unrelated to stent disease, incidence [3, 15]: 3.2%
ACS, incidence [3, 15]: 4.6%
primary outcome, incidence ([3]; intention to treat, 282 patients assigned to colchicine 0.5 mg/day, median follow up 36 months): 5.3%
primary outcome, hazard ratio ([3]; intention to treat, colchicine vs control group, 95% CI 0.18-0.59, p<0.001): 0.33
ACS unrelated to stent disease associated with UA, patients ([3]; intention to treat, of 282): 5
ACS unrelated to stent disease associated with an AMI, patients ([3]; intention to treat, of 282): 4
ACS unrelated to stent disease, patients ([3]; intention to treat, of 282): 9
patients presenting with an ACS ([3]; intention to treat, of 282): 13
primary outcome (ACS, out of hospital cardiac arrest or non-cardio-embolic ischemic stroke), patients with event ([3]; intention to treat, of 282 patients assigned to colchicine 0.5 mg/day, median follow up 36 months): 15 patients
early intolerance due to gastrointestinal side effects, patients ([3]; of 282 randomized to treatment): 32
events (primary outcome), hazard ratio ([3]; on-treatment vs control, 95% CI 0.15-0.56, p<0.001): 0.29
events (primary outcome), incidence ([3]; on-treatment: compliant and tolerant to therapy beyond the first month, 243 patients): 4.5%
events (primary outcome), patients ([3]; on-treatment: compliant and tolerant to therapy beyond the first month, of 243): 11
stent related ACS with evidence of acute stent thrombosis, patients ([3]; per group): 2
stent related ACS with evidence of significant in-stent stenosis, patients ([3]; per group): 2
number needed to treat ([3]; primary outcome, intention to treat): 11
out of hospital cardiac arrest and non-cardio-embolic ischemic stroke ([3]; treatment group vs control, infrequent events): reduced
AMI unrelated to stent disease, hazard ratio ([3]; vs control, 95% CI 0.08-0.76, p=0.014): 0.25
UA unrelated to stent disease, hazard ratio ([3]; vs control, 95% CI 0.10-0.75, p=0.011): 0.27
ACS unrelated to stent disease, hazard ratio ([3]; vs control, 95% CI 0.12-0.55, p<0.001): 0.26
ACS, hazard ratio ([3]; vs control, 95% CI 0.18-0.63, p<0.001): 0.33
recurrence rate [2]: 10.7%
